Laboratory results: patent US20260315606A1, “NOVEL COMPOUNDS CAPABLE OF INDUCING OSTEOGENIC DIFFERENTIATION” (AJOU UNIVERSITY INDUSTRY-ACADEMIC COOPERATION FOUNDATION, priority 2023, published 2026)

What was measured:
MDM2 = target: T1, MDM2 (Homo sapiens, UniProt Q00987); assay: Western blot (SDS-PAGE) of intracellular MDM2 protein degradation in hDPSCs; format: cell-based; details: FIG. 2; selected treatment concentrations not given
T1 construct: degradation by nutlin-based CRBN-recruiting PROTACs, Western blot
T1 sequence (Q00987 whole entry): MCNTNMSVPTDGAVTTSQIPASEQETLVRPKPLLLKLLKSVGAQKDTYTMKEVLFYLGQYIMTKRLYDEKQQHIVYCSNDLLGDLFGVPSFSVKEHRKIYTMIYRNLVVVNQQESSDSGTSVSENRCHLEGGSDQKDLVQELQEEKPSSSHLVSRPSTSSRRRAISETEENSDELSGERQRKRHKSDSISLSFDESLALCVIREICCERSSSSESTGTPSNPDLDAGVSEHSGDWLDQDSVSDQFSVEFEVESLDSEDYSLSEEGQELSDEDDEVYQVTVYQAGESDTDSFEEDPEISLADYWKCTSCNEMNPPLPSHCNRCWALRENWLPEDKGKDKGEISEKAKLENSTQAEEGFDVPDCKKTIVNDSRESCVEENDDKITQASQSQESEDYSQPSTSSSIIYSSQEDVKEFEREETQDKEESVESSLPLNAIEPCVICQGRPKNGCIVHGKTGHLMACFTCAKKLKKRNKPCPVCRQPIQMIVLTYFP
T1 sequence (Q96SW2 whole entry partner): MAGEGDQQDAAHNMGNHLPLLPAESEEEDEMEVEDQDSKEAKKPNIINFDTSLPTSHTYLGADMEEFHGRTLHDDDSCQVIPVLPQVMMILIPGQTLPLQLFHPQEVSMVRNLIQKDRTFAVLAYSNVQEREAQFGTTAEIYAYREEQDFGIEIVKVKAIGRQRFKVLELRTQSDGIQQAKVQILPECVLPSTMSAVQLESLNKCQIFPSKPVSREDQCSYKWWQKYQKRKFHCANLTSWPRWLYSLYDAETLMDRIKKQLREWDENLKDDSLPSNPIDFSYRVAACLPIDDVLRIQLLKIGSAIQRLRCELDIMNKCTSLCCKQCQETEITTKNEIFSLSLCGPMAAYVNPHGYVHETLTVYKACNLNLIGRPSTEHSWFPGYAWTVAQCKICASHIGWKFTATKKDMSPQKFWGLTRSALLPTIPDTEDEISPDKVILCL
Description: Human dental pulp stem cell lines (hDPSCs) were treated with 14 types of synthesized MDM2-PROTACs (10 μM) for 1 hour and Western blot analysis using SDS-PAGE gel was performed to evaluate the intracellular MDM2 protein degradation capacity.

p53 = p53 activation in selection of compounds (FIG. 2); format: cell-based, human; details: selected treatment concentrations not given

Q: Which results are given for “2-(4-(cis-4,5-bis(4-chlorophenyl)-2-(2-isopropoxy-4-methoxyphenyl)-4,5-dihydro-1H-imidazole-1-carbonyl)-2-oxopiperazin-1-yl)-N-(8-((2-(2,6-dioxo-opiperidin-3-yl)-1,3-dioxoisoindolin-4-yl)oxy)octyl)acetamide [Compound 6b]”?
A: MDM2 degradation (selected compounds) (MDM2): effectively degrade MDM2; p53 activation (selected compounds) (p53): activate p53

Q: Which results are given for “2-(4-(cis-4,5-bis(4-chlorophenyl)-2-(2-isopropoxy-oxopiperazin-1-yl)-N-(9-(2-(2,6-dioxopiperidin-3-yl)-1,3-dioxoisoindolin-4-yl)non-8-yn-1-yl) acetamide [Compound 16b]”?
A: MDM2 degradation (selected compounds) (MDM2): effectively degrade MDM2; p53 activation (selected compounds) (p53): activate p53
